# Tests used:
# GAL-PPARα = assay: PPARα activation assay (GAL-PPARα / GAL4-Luc reporter) in HEK293 cells expressing endogenous AdipoR1; type: cell-based, human; settings: 100 pM GW-7647 alone, 6 hours, HEK293
# Protocol: A. ULMA enhances PPARα ligand activity; HEK293 cells were seeded on to 24 well plates and after 24 h, transfected with 100 ng of GAL-PPARα and 100 ng GAL4-Luc along with 100 ng eGFPC1 (Clontech) plasmids using lipofectamine LTX (Invitrogen) according to manufacturer's instructions. 24 h after transfection, cells were treated with or without 100 pM GW-7647 alone or in combination with 100 nM ULMA or 1 μg/ml globular adiponectin (gAd) for 6 h. Following which, the cells were lysed and GFP fluorescence and firefly luciferase activities were measured. Luciferase activity was normalized with GFP fluorescence and plotted as fold activity over vehicle (0.1% DMSO) treated control. Data shown in mean±SEM of three independent experiments performed in duplicates. *p<0.05 as determined by two tailed unpaired student's t-test.
# The potential of ULMA to activate adiponectin receptor signaling was evaluated using a PPARα activation assay. […] 24 hours following plating, these cells were transfected with 100 ng of GAL-PPARα (PPARα cDNA fused with GAL4 DNA binding domain) and 100 ng GAL4 upstream activation sequence driven luciferase (GAL4-Luc) reporter gene that is capable of binding to any protein fused to GAL4-DNA binding domain (in this case GAL-PPARα) and 100 ng Green fluorescence expressing plasmid (GFP) that was used as an internal control, using lipofectamine LTX transfection reagent (Invitrogen) according to manufacturers' instructions. […] The cells were then lysed and luciferase activity was measured in a Promega GloMax luminometer using steady Glo luciferase assay kit (Promega) according to manufacturers' instructions; and GFP fluorescence was measured in a fluorimeter (Polarstar Galaxy, BMG Labtech). […]
# wistar rats [1] = assay: Dexamethasone induced loss of body weight and death in rats; settings: Dex alone (200 μg/kg IP), 2 weeks
# Protocol: All animal experiments were conducted in accordance with current legislation on animal experiments [Institutional Animal Ethical Committee (IAEC)] at C.D.R.I. In all animal experiments, rats were individually housed at 21° C., in 12-h light:12-h dark cycles. All animals had access to normal chow diet and water ad libitum.
# (§1) Food intake was measured daily and the rats were weighed each week. The rats were fasted overnight (O/N) on day 14th and on day 15th oral glucose tolerance test was performed. Following oral glucose tolerance test (OGTT), rats were kept with food and water ad libitum for one day. On day 16th, rats were fasted again O/N and then euthanized. At autopsy, from 5 animals/group, tissues were collected and snap frozen in liquid nitrogen. Blood was collected from cardiac punctures. Plasma was separated from whole blood by centrifugation at 3000 rpm for 20 min immediately after collection of blood and stored at −80° C. until further analysis. […] (quadriceps) skeletal muscles were processed for RNA and protein extraction, followed by quantitative real-time PCR (QRT-PCR) analysis. Two animals from each group were used for photography post autopsy.
# wistar rats [2] = assay: Dexamethasone-mediated reduction of food intake in rats; type: in vivo, rat; settings: Dex alone 200 μg/kg IP
# Protocol: Six to eight week old wistar rats (n=6 per group) were housed separately and treated as indicated in the example. Daily food intake was measured and plotted. […] Data represents mean+/−SEM.
# (§2) Blood was collected from cardiac punctures.
# Food intake was measured every alternate day by giving measured food to each cage in evening (5.00 PM) and collection of residual food in next morning (9.00 AM) and measuring it. The residual food was subtracted from the food given and plotted.
# wistar rats [3] = assay: Dexamethasone-induced skeletal muscle atrophy in rats (limb appearance, QRT-PCR of PGC-1α and atrogenes); type: in vivo, rat; settings: Dex alone
# Protocol: Following 15 d indicated treatment of rats, the skeletal muscle (pulled hind limb) were collected and RNA was extracted from them and QRT-PCR was performed in a Roche lightcycler 480 machine. Data represents mean+/−SEM from six animals done in triplicates. “a” statistical analysis between Vehicle and Dexamethasone-treated groups, “b”, statistical analysis between dex-treated and dex+ ULMA groups. P<0.05, as determined by student's t-test, n=6.
# as §2
# RNA was isolated from skeletal muscles using Trizol (according to manufacturers' protocol) and reverse transcribed as described above and either PGC-1α expression or muscle atrophy related genes (atrogenes) expression were examined.
# wistar rats [4] = assay: Dexamethasone-mediated reduction in serum osteocalcin in rats (ELISA); type: in vivo, rat; settings: Dex alone, 14 days
# Protocol: as §1
# wistar rats [5] = assay: Dexamethasone-mediated imbalance in serum Na, K level in rats; type: in vivo, rat; settings: Dex + Vehicle, 14 days
# Protocol: Food intake was measured daily and the rats were weighed each week. The rats were fasted overnight (O/N) on day 14th and on day 15th oral glucose tolerance test was performed. Following oral glucose tolerance test (OGTT), rats were kept with food and water ad libitum for one day. On day 16th, rats were fasted again O/N and then euthanized. At autopsy, from 5 animals/group, tissues were collected and snap frozen in liquid nitrogen. Blood was collected from cardiac punctures. Plasma was separated from whole blood by centrifugation at 3000 rpm for 20 min immediately after collection of blood and stored at −80° C. until further analysis. Forelimb (quadriceps) skeletal muscles were processed for RNA and protein extraction, followed by quantitative real-time PCR (QRT-PCR) analysis. Two animals from each group were used for photography post autopsy.
smiles,measurement,setting,value
"CC(C)(Sc1ccc(CCN(CCCCC2CCCCC2)C(=O)NC2CCCCC2)cc1)C(=O)O [GW-7647, reference compound]",increase of luciferase activity over vehicle-treated controls,GAL-PPARα,2 folds
"C[C@@H]1C[C@H]2[C@@H]3CCC4=CC(=O)C=C[C@]4(C)[C@@]3(F)[C@@H](O)C[C@]2(C)[C@@]1(O)C(=O)CO [Dex, Dexamethasone, reference compound]",Survival/group (%),wistar rats [1],46.7%
same,food intake,wistar rats [2],robust loss in food-intake
same,appearance of denuded forelimb and hindlimb,wistar rats [3],severe abnormality in the limbs
same,"mRNA levels of atrogenes (Atrogin-1/MAFbx, MuRF1, Cathepsin L, Glul) in skeletal muscle",wistar rats [3],robustly induced
same,Osteocalcin,wistar rats [4],263.5 ± 6.4 ng/mL
same,K,wistar rats [5],3.47 ± 0.13 mM
